Experimental data taken from publication PMC10376059, “New NADPH Oxidase 2 Inhibitors Display Potent Activity against Oxidative Stress by Targeting p22^phox-p47^phox Interactions” (Antioxidants, 2023).

What was measured:
[1] = tested on: cardiomyocytes isolated from mdx mice; assay: NOX2-mediated ROS production (DCF-DA, confocal) in mdx cardiomyocytes; type: cell-based, mouse; settings: 20 µM
Text: Cardiomyocytes were isolated from mdx mice (C57BL/10ScSn-DMDmdx/J, stock number 001801M, Jackson Laboratories, Bar Harbor, […], USA). Male mdx mice of 19 months of age were used, which were housed in individual cages with water and food ad libitum. All the procedures were adjusted to the “Guide for the Care and Use of Laboratory Animals” (1996) of the National Institute of Health and were approved by the Institutional Committee for Animal Care and Use of the Universidad de Talca. Mice were pre-medicated with heparin i.p. (200U.) and then sacrificed by cervical dislocation. The heart was rapidly removed, cannulated through the aorta, and retrogradely perfused in a steady flow (2 mL/min) at 37 °C. The hearts were initially perfused for 10 min with a Ca^2+-free bicarbonate buffer solution containing (in mM) 120 NaCl; 5.4 KCl; 1.2 MgSO4; 1.2 NaH2PO4; 5.6 glucose; 20 NaHCO3; 10 BDM, and 5 taurine, bubbled with a 95% O2–5% CO2 mixture. Enzyme digestion was performed with collagenase type II (1 mg/mL; Worthington Biochemical Corp., Lakewood, NJ, USA) and protease type XIV (0.1 mg/mL; Sigma-Aldrich) as previously reported. Isolated cardiomyocytes were transferred to 1.5 mL Eppendorf tubes and preincubated with the heteroaryl acrylonitrile compounds.
Cardiomyocytes isolated from mdx mice were transferred to Eppendorf tubes to be incubated with 1 μM of the indole heteroaryl-acrylonitrile derivatives for 30 min, protected from light, at room temperature. VAS2870 (20 μM) was used as a positive control for NOX2 inhibition. 2′,7′-dichlorofluorescein diacetate (DCF-DA) (10 μM) was then added and incubated for 15 min. Subsequently, it was allowed to sediment by gravity to remove the supernatant, and the pellets obtained were in a phosphate saline solution (PBS). 200 μL of the cell suspension were placed on pre-treated polylysine slides (Thermo Fischer, USA) and fixed with 2% paraformaldehyde (Sigma-Aldrich®, St. Louis, MO, USA) for 10 min at 4 °C. […] From the acquired images, the fluorescence intensity was quantified at 495 nm, and the data were reported as fluorescence intensity per pixel.

[2] = molecular target: T1, p47^phox (Homo sapiens, UniProt P14598); assay: p47phox translocation from cytosol to membrane (Western blot) in PMA-stimulated HL-60 differentiated cells; type: cell-based; settings: PMA 0.8 µM, 20 µM
T1 construct: we evaluated p47^phox translocation from the cytosol to the membrane in HL-60 differentiated cells; endogenous in cells; host or cells: neutrophil-differentiated HL-60 cells treated with PMA; membrane and cytosolic fractions obtained by cryo-fracture
T1 sequence (P14598 1-390): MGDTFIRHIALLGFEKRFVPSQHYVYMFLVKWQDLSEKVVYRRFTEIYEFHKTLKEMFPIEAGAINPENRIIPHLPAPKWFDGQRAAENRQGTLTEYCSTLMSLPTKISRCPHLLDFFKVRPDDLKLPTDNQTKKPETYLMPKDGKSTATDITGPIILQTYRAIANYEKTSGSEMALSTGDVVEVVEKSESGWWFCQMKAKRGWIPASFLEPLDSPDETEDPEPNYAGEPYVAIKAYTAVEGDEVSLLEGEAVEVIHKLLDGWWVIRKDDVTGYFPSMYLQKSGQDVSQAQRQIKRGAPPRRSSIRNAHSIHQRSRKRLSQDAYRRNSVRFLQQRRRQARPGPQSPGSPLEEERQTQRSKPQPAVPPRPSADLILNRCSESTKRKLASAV
Procedure: Neutrophil-differentiated HL-60 cells (2 × 10^6 cells/mL) were incubated at 37 °C in a humid atmosphere with 5% CO2 and 50 μM of the different acrylonitrile compounds, then PMA 0.8 μM was added and incubated for 1 h to induce the activation of the enzyme NADPH oxidase. As a positive inhibition control, VAS2870 (20 μM) was used. Another two controls were performed: one with cells activated by PMA in the presence of DMSO, and the other (NA, non-activated) with cells in the absence of PMA and the acrylonitrile compounds. In 15 mL conical tubes, 5 mL of cell suspension from each treatment and control condition was transferred at 2 × 10^6 cells/mL and centrifuged at 1000 rpm at 4 °C for 10 min. The supernatant was then discarded, and each pellet was re-suspended in 2 mL of a 4% PBS solution with 2 mM EGTA and 0.25 mM PMSF frozen at −80 °C for 10 min. Then each pellet was thawed on ice. After this, the cell suspension was passed through a glass tissue homogenizer (Deltalab®, I.C.T, S.L, La Rioja, Spain) 20 times. The freezing-thawing and homogenization processes were repeated three times. Finally, the homogenate was centrifuged at 15,000 rpm at 4 °C for 15 min. The supernatant (cytosolic fraction) was removed from the pellet (membranes were prepared). A fraction was removed for the determination of total proteins, and the remainder was stored at −80 °C for further analysis. […]

[3] = tested on: isolated rat hearts; assay: Ischemia-reperfusion in isolated rat heart (Langendorff); settings: 100 µM, TTC staining

SMILES	NOX2-derived ROS, DCF (in words) [1]	translocation of p47phox to the membrane (in words) [2]	infarcted area (in words) [3]
c1ccc(Cn2nnc3c(Sc4nc5ccccc5o4)ncnc32)cc1 [VAS2870, 7-(1,3-Benzoxazol-2-ylsulfanyl)-3-benzyl-3H-[1,2,3]triazolo [4,5-d]pyrimidine, reference compound]	reduced	significantly reduced the translocation of p47^phox to the membrane	–
COc1cc(C(C)=O)ccc1O [apocynin]	–	–	reduced the infarcted area
